One test addresses T1, USP28 (Homo sapiens (Human), UniProt Q96RU2). Kind of test: Ubiquitin-Rhodamine110 assay. The format is biochemical. As to conditions: USP28 at 1 nM; 30 minutes pre-incubation at room temperature; Ubiquitin-Rho110 substrate 125 nM. As for the experimental part: USP28 (at 1 nM) was pre-incubated with different concentrations of inhibitors or DMSO as a control in 50 mM Tris pH 8, 50 mM NaCl, 0.002% Tween-20, 5 mM DTT. Compounds and protein were incubated for 30 minutes at room temperature prior to the addition of Ubiquitin-Rho110 (Boston Biochem) substrate for a final concentration of 125 nM. The initial rate of the reaction was measured by collecting fluorescence data at one-minute interval over 30-minute period using a Clariostar® fluorescence plate reader at excitation and emission wavelength of 485 nm and 535 nm, respectively. The calculated initial rate values were plotted against inhibitor concentrations to determine IC50s. All the experimental data were plotted using GraphPad Prism®.
T1 sequence (Q96RU2 whole entry): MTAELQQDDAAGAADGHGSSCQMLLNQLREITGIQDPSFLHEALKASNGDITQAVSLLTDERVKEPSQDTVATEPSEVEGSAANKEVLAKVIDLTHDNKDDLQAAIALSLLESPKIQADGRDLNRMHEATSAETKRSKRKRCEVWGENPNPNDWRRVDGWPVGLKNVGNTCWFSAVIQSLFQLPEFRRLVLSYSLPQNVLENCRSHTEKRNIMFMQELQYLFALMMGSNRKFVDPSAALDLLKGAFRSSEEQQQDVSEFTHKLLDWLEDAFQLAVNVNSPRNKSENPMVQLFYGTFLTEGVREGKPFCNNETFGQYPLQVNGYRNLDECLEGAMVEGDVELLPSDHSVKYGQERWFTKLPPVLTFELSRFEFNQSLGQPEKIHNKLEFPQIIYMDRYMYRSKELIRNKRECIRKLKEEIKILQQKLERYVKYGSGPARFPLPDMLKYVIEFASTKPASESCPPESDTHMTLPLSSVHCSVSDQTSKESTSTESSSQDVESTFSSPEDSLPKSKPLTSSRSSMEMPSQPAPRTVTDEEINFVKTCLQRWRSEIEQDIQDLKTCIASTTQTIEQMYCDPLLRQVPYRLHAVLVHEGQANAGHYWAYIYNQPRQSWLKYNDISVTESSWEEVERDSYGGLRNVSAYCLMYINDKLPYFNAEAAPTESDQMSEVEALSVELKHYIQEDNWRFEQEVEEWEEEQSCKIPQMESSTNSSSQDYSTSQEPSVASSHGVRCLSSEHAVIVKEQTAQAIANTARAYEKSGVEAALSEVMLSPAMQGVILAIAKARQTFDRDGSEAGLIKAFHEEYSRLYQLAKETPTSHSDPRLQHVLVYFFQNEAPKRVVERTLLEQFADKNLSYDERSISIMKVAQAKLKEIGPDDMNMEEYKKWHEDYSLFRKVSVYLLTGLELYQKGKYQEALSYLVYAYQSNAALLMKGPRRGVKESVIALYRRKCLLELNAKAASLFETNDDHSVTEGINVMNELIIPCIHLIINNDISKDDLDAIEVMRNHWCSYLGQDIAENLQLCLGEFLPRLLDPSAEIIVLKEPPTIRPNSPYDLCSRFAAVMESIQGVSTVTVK
What is called IC50 is the point on the concentration scale where inhibition reaches its midpoint. Lower therefore signals higher potency. `CCCc1nc2sc3c(NCCc4ccc(OC)c(OC)c4)ncnc3c2c2c1CCC2` [Compound 1] returned an IC50 below 1000 nM.

As for `CCCc1nc2sc3c(NCc4ccco4)ncnc3c2c2c1CCC2` [Compound 2], the IC50 was below 1000 nM.

On to `CCCc1nc2sc3c(NC4CCCCC4)ncnc3c2c2c1CCC2` [Compound 3], for which the IC50 was in the range of 10000 to 100000 nM.

`CCCc1nc2sc3c(NCCc4ccc(Cl)c(Cl)c4)ncnc3c2c2c1CCC2` [Compound 4] displayed an IC50 of 10000 to 100000 nM.

In turn, `CCCc1nc2sc3c(NCc4ccc(Cl)c(Cl)c4)ncnc3c2c2c1CCC2` [Compound 5] gave an IC50 above 100000 nM.

In turn, `COc1ccc(CCNc2ncnc3c2sc2ncccc23)cc1OC` [Compound 6] yielded an IC50 of 1000 to 10000 nM.

`CCCc1nc2sc3c(N(C)CCc4ccc(OC)c(OC)c4)ncnc3c2c2c1CCC2` [Compound 7] had an IC50 of 10000 to 100000 nM.

Compound `COc1ccc(CCNc2ncnc3c2sc2ncc4c(c23)CCC4)cc1OC` [Compound 8] displayed an IC50 of 1000 to 10000 nM.

In turn, `CCCc1nc2sc3c(NCc4ccc(OC)c(OC)c4)ncnc3c2c2c1CCC2` [Compound 9] gave an IC50 below 1000 nM.

`CCCc1nc2sc3c(NCCc4ccc(OC)cc4)ncnc3c2c2c1CCC2` [Compound 10] had an IC50 below 1000 nM.

In the case of `CCCc1nc2sc3c(NCCc4cccc(OC)c4)ncnc3c2c2c1CCC2` [Compound 11], the IC50 lay in the range of 10000 to 100000 nM.

Turning to `CCCc1nc2sc3c(NCCc4ccc(N(C)C)cc4)ncnc3c2c2c1CCC2` [Compound 12], the IC50 is below 1000 nM.

The compound `CCCc1nc2sc3c(NCCc4ccc5c(c4)OCCO5)ncnc3c2c2c1CCC2` [Compound 13] yielded an IC50 of 1000 to 10000 nM.

Compound `CCCc1nc2sc3c(NCCCc4ccc(OC)c(OC)c4)ncnc3c2c2c1CCC2` [Compound 14] came in with an IC50 of 10000 to 100000 nM.

Take `CCCc1nc2sc3c(NCCc4c[nH]c5ccccc45)ncnc3c2c2c1CCC2` [Compound 15]: the IC50 lay within 1000 to 10000 nM.

For the compound `CCCc1nc2sc3c(NCCc4cc(OC)c(OC)c(OC)c4)ncnc3c2c2c1CCC2` [Compound 16], the IC50 is 1000 to 10000 nM.

As to `CCCc1nc2sc3c(NCCc4cccs4)ncnc3c2c2c1CCC2` [Compound 17], the IC50 was below 1000 nM.

For the compound `CCCc1nc2sc(C(=O)NCCc3ccc(OC)c(OC)c3)c(N)c2c2c1CCC2` [Compound 18], the IC50 was below 1000 nM.

On to `CCCc1nc2sc3c(NCCc4ccc(N5CCNCC5)cc4)ncnc3c2c2c1CCC2` [Compound 19], for which the IC50 was below 1000 nM.

`COc1ccc(CCNC(=O)c2sc3nc(C)ccc3c2N)cc1OC` [Compound 20] returned an IC50 below 1000 nM.

`CCCc1nc2sc(C(=O)NCCc3ccc(N4CCNCC4)cc3)c(N)c2c2c1CCC2` [Compound 21] registered an IC50 below 1000 nM.

On to `Cc1ccc2c(N)c(C(=O)NCCc3ccc(C4CCNCC4)cc3)sc2n1` [Compound 22], for which the IC50 is below 1000 nM.

`Cc1ccc2c(N)c(C(=O)NCCc3ccc(C4CC5CCC(C4)N5)cc3)sc2n1` (centres unmarked) [Compound 23] gave an IC50 below 1000 nM.

`Cc1ccc2c(N)c(C(=O)NCCc3ccc(C4CC5CCC(C4)N5C(=O)OC(C)(C)C)cc3)sc2n1` (centres unmarked) [Compound 24] gave a 50% inhibitory concentration (IC50) below 1000 nM.

Turning to `COc1ccc(CCNC(=O)c2sc3nc(C)c4c(c3c2N)CCC4)cc1OC` [Compound 25], the IC50 is below 1000 nM.

For `COc1ccc(CCNC(=O)c2sc3nc4c(c(C)c3c2N)CCC4)cc1OC` [Compound 26], the IC50 was below 1000 nM.

On to `CCCc1nc2oc(C(=O)NCCc3ccc(OC)c(OC)c3)c(N)c2c2c1CCC2` [Compound 27], for which the IC50 is below 1000 nM.

In turn, `CCCc1ccc2c(N)c(C(=O)NCCc3ccc(OC)c(OC)c3)sc2n1` [Compound 28] came in with an IC50 below 1000 nM.

Turning to `CCCc1nc2sc(C(=O)NCCc3ccc(OC)c(OC)c3)c(NC(C)=O)c2c2c1CCC2` [Compound 29], the IC50 is below 1000 nM.

In the case of `Cc1ccc2c(N)c(C(=O)NCCc3ccc(N4CCNCC4)cc3)sc2n1` [Compound 30], the IC50 is below 1000 nM.

For `Cc1ccc2c(N)c(C(=O)NCCc3ccc(N4CCN(C(=O)OC(C)(C)C)CC4)cc3)sc2n1` [Compound 31], the half-maximal inhibitory concentration (IC50) is below 1000 nM.

As for `CCCc1nc2sc(C(=O)NCCc3ccc(O)c(O)c3)c(N)c2c2c1CCC2` [Compound 32], the IC50 is below 1000 nM.

`CCCc1nc2sc(C(=O)NCCc3ccc(OC)c(OC)c3)c(NCc3ccccc3)c2c2c1CCC2` [Compound 33]: the IC50 is below 1000 nM.

For `CCCc1nc2sc(C(=O)NCCc3ccc(OC)c(OC)c3)c(N)c2cc1C(=O)N(C)C` [Compound 35], the IC50 is below 1000 nM.

The compound `CCCc1nc2sc(C(=O)NCC(C)c3ccc(OC)c(OC)c3)c(N)c2c2c1CCC2` (centres unmarked) [Compound 36] returned an IC50 below 1000 nM.

On to `CCCc1nc2sc(C(=O)NC(C)Cc3ccc(OC)c(OC)c3)c(N)c2c2c1CCC2` (centres unmarked) [Compound 37], for which the IC50 was below 1000 nM.

`CCCc1ccc2c(n1)sc1c(NCCc3ccc(OC)c(OC)c3)ncnc12` [Compound 38] came in with an IC50 below 1000 nM.

On to `CCCc1ccc2c(n1)sc1c(NCCc3ccc4c(c3)OCCO4)ncnc12` [Compound 39], for which the IC50 is below 1000 nM.

Take `CCCc1nc2sc(C(=O)NC[C@H](C)c3ccccc3)c(N)c2c2c1CCC2` [Compound 40]: the IC50 was below 1000 nM.

`CCCc1nc2sc(C(=O)NC[C@@H](C)c3ccccc3)c(N)c2c2c1CCC2` [Compound 41] gave an IC50 below 1000 nM.

With `CCCc1ccc2c(n1)sc1c(NCCc3ccc(N(C)C)cc3)ncnc12` [Compound 42], the IC50 is below 1000 nM.

For the compound `CCCc1ccc2c(n1)sc1c(NCC(C)c3ccc(OC)c(OC)c3)ncnc12` (centres unmarked) [Compound 43], the IC50 is below 1000 nM.

Take `CCCc1nc2sc3c(OCCc4ccc(OC)c(OC)c4)ncnc3c2c2c1CCC2` [Compound 44]: the IC50 was in the range of 1000 to 10000 nM.

On to `CCCc1nc2sc3c(NCCc4ccc(OC)c(OC)c4)ncnc3c2c2c1CCCC2` [Compound 45], for which the IC50 was below 1000 nM.

In turn, `CCCc1nc2sc(C(=O)NCCc3ccc(OC)c(OC)c3)c(N)c2c2c1CCCC2` [Compound 46] registered an IC50 below 1000 nM.

`CCCc1nc2sc(C(=O)N[C@@H](C)Cc3ccc(OC)cc3)c(N)c2c2c1CCC2` [Compound 47] showed an IC50 below 1000 nM.

`CCCCCc1nc2sc3c(NCCc4ccc(OC)c(OC)c4)ncnc3c2c2c1CCC2` [Compound 48] gave an IC50 below 1000 nM.

The compound `CCCCCc1nc2sc(C(=O)NCCc3ccc(OC)c(OC)c3)c(N)c2c2c1CCC2` [Compound 49] displayed an IC50 below 1000 nM.

On to `CCCc1nc2sc(C(=O)N[C@H](C)Cc3ccc(OC)cc3)c(N)c2c2c1CCC2` [Compound 50], for which the IC50 was below 1000 nM.

A further test has as its target T1, USP28. Kind of test: Competitive activity-based protein profiling (Ub-VME labeling, Western blot) in K562 cell lysate. As to conditions: K562 cells lysed, treated with compound for 1 h followed by incubation with Ub-VME; Western blot (FIG. 2). The format is binding. As for the experimental part:
K562 cells were lysed and treated with indicated concentrations of compound 1 for 1 h followed by incubation with Ub-VME. Ub-VME covalently modifies USP28, resulting in higher MW band observed by Western blot.
Cells were pelleted, washed with PBS buffer, lysed on ice (20 mM Tris pH 8, 150 mM NaCl, 1% NP-40, 10% glycerol, 1 mM TCEP, phosphatase inhibitor cocktails (Sigma P5726 and Calbiochem 524624), and protease inhibitors (pepstatin, leupeptin, PMSF, and aprotinin), and clarified by centrifugation. Protein content was quantified by BCA and diluted to 2 mg/mL in lysis buffer. Compounds were added at desired concentrations and incubated at room temperature for 30 minutes. Samples were then supplemented with 2 uM HA-Ub-VS and incubated at room temperature with shaking for 15 minutes. Reactions were quenched with 4×LDS sample buffer (Thermo Fisher B0007) supplemented with 10% BME, vortexed vigorously, and heated to 95° C. for 5 minutes. Samples were resolved by SDS-PAGE and analyzed by Western blot with the indicated antibodies.
A general note: Immunoblotting shows a protein as a band on a membrane.
Regarding `CCCc1nc2sc3c(NCCc4ccc(OC)c(OC)c4)ncnc3c2c2c1CCC2` [Compound 1], the “Target engagement: labeling of USP28 by covalent Ub-VME probe” value was “prevents labeling of USP28 by the covalent Ub-VME probe”.

The values are drawn from patent US20230365583A1, “FUSED TRICYCLIC PYRIMIDINE-THIENO-PYRIDINE SMALL MOLECULE INHIBITORS OF UBIQUITIN-SPECIFIC PROTEASE 28” (Dana-Farber Cancer Institute, Inc., priority 2020, published 2023).
